{"source": "patent US9187477B2", "about": "“Azabenzimidazole derivatives” (Boehringer Ingelheim International GmbH, priority 2013, dated 2015)", "key": {"[1]": {"test": "Metabolic stability: metabolic degradation with pooled human liver microsomes", "assay_type": "in vitro ADME", "details": "for c (control) (metabolic stability), remaining test compound after NADPH independent incubation: incubation without NADPH, after 2 hours, human liver microsomes; for t1/2 INVITRO: pooled human liver microsomes 1 mg/ml, 37° C., test compound 1 μM, NADPH 1 mM", "experimental": "The metabolic degradation of the test compound is assayed at 37° C. with pooled human liver microsomes. The final incubation volume of 100 μl per time point contains TRIS buffer pH 7.6 at room temperature (0.1 M), magnesium chloride (5 mM), microsomal protein (1 mg/ml) and the test compound at a final concentration of 1 μM.\nFollowing a short preincubation period at 37° C., the reactions were initiated by addition of beta-nicotinamide adenine dinucleotide phosphate, reduced form (NADPH, 1 mM) and terminated by transferring an aliquot into solvent after different time points.\nAdditionally, the NADPH-independent degradation was monitored in incubations without NADPH, terminated at 2 hour time point. The [%] remaining test compound after NADPH independent incubation is reflected by the parameter c (control) (metabolic stability). A c (control) (metabolic stability) value around 100% excludes cofactor independent activities (e.g. from esterases).\nThe quenched incubations are pelleted by centrifugation (10000 g, 5 min).\nAn aliquot of the supernatant is assayed by LC-MS/MS for the amount of parent compound. The half-life (t1/2 INVITRO) is determined by the slope of the semilogarithmic plot of the concentration-time profile."}, "[2]": {"target": "AMPK complex 1 (containing alpha1beta1gamma1) (Homo sapiens (Human), UniProt Q13131+Q9Y478)", "sequence (Q13131 whole entry)": "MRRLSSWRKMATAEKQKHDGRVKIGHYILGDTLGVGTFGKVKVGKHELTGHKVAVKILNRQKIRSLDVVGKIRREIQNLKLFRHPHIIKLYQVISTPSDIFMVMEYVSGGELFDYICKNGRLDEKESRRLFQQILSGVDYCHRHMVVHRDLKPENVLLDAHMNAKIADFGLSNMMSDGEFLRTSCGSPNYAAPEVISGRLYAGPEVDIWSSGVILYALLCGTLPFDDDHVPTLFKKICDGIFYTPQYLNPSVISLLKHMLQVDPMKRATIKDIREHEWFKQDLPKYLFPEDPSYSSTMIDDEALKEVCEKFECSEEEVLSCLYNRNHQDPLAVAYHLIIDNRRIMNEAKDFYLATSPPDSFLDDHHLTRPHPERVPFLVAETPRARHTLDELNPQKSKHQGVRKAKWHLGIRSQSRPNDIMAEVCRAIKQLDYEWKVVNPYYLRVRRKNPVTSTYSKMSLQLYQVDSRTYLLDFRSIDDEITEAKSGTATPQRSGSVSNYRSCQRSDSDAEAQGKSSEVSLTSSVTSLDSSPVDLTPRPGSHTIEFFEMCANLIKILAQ", "sequence (Q9Y478 whole entry)": "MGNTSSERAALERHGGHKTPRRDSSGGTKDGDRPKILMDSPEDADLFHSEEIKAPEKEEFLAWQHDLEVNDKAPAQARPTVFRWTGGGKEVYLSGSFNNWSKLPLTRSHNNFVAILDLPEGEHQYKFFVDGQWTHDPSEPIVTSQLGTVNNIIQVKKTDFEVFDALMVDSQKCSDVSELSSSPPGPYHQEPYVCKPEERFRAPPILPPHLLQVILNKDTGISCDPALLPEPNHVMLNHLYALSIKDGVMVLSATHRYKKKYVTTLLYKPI", "sequence (P54619 whole entry partner)": "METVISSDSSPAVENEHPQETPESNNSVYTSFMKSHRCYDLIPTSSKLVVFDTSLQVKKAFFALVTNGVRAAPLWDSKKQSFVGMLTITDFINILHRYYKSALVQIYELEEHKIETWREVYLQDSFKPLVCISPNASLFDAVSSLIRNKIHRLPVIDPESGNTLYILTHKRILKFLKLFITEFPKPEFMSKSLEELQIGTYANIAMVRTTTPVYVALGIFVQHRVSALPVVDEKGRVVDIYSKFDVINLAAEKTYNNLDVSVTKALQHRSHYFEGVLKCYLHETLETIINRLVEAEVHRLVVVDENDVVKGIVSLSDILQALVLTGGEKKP", "test": "in vitro AMPK activation assay (ADP-Glo Kinase Assay)", "assay_type": "biochemical", "details": "AMPK alpha1beta1gamma1, ATP 30 μM, peptide 1 μM, 60 min, room temperature", "text": "Activated AMPK complex 1 (containing alpha1beta1gamma1) was obtained from baculovirus expression system. The gene encoding AMPK alpha1 was cloned into the pACG2T vector (BD Biosciences) to obtain a N-terminal Glutathion S transferase (GST)-fusion protein. The genes encoding AMPK beta1 and gamma1 were cloned into the p2Bac dual multiple cloning site vector (Invitrogen) with beta1 under the control of the p10 promoter and gamma1 under the control of the PH promoter. The transfer vectors containing AMPK were co-transfected individually with AcPNV BacMagic-3 DNA (EMD Millipore) in Sf9 cells and the recombinant baculoviruses were harvested after 5 days, followed by 3 rounds of amplification of the virus stock in Sf9 cells. AMPK (alpha1beta1gamma1) was expressed in High Five 5 cells by co-infection of recombinant alpha1 virus and recombinant beta1/gamma1 virus for 72 h at 27° C. Cells were harvested by centrifugation and lysed by 3 freeze/thaw cycles in PBS with 10% glycerol and protease inhibitor cocktail (Roche). After centrifugation AMPK a1b1g1 in the supernatant was captured by immobilized glutathione (GE Healthcare), impurities were washed away with PBS and AMPK alpha1beta1gamma1 was eluted with PBS containing 20 mM reduced gluthathione. The protein buffer was then exchanged to PBS with 10% glycerol and protein concentration was determined by UV absorbance.\nThe white 384-well Optiplates (cat. no. 6007299) were purchased from PerkinElmer. The V9101 ADP-Glo Kinase Assay and ultra pure ATP (V915A) was purchased from Promega. The substrate for AMPK (NH2-HMRSAMSGLHLVKRR_CONH2) was purchased from Upstate (12-355).\nCompounds were tested in either serial dilutions or single dose concentrations. The serial compound dilutions were prepared in 100% DMSO automatically. The final DMSO concentration in the assay was 0.1%.\nThe Compound Stock Solutions were 10 mM in 100% DMSO. The compounds were solubilised at room temperature.\nIn the 384-well plates 1.25 ul of test compound in assay buffer was mixed with 1.25 ul of AMPK and 1.25 μl of the peptide (final concentration of 1 μM) and 1.25 μl of ATP (final concentration of 30 μM), both dissolved in assay buffer. This step was followed by an incubation time of 60 min. Then 5 μl of ADP Glo Reagent was added. This was followed by 40 min of incubation. Then 10 μl of Kinase Detection Reagent was admixed. The plates were sealed and after an incubation period of 30 min, the luminescence signal was measured in an Envision reader. All incubation steps were accomplished at room temperature.\nEach assay microtiter plate contained wells with vehicle controls instead of compound (0.1% DMSO in water) as reference for the low signal (100% CTL, low signal), and wells with serial dilutions of AMP (final 30 μM) as reference for high signals.\nThe luminescence signal generated was proportional to the ADP concentration produced and was correlated with AMPK activity. The analysis of the data was performed by the calculation of the percentage of ATP consumption of AMPK in the presence of the test compound compared to the consumption of ATP in the presence of AMPK without compound. (RLU(sample)/RLU(low control))*100[RLU=relative luminescence units]\nAn activator of the AMPK enzyme gave values above 100% CTL.\nEC50 values based on dose response curves are calculated with the XIFIT software using the 4 Parameter Logistic Model or Sigmoidal Dose-Response Model."}}, "data": [{"smiles": "CC(C)OC(=O)N[C@H]1CC[C@@H](c2ccc(-c3nc4[nH]c(O[C@@H]5CO[C@H]6[C@@H]5OC[C@H]6O)nc4cc3Cl)cc2)CC1", "note": "[Example 4, Isopropyl (cis)-4-(4-(6-chloro-2-((3R,3aR,6R,6aR)-6-hydroxyhexahydrofuro[3,2-b]furan-3-yloxy)-3H-imidazo[4,5-b]pyridin-5-yl)phenyl)cyclohexylcarbamate]", "values": [{"measurement": "c (control) (metabolic stability), remaining test compound after NADPH independent incubation", "setting": "[1]", "result": 103, "unit": "%"}, {"measurement": "t1/2 INVITRO", "setting": "[1]", "result": ">2.17", "unit": "h"}, {"measurement": "EC50", "setting": "[2]", "result": 12, "unit": "nM"}]}, {"smiles": "O=C(O[C@H]1CC[C@H](c2ccc(-c3nc4[nH]c(O[C@@H]5CO[C@H]6[C@@H]5OC[C@H]6O)nc4cc3Cl)cc2)CC1)N1CCOCC1", "note": "[Example 6, (trans)-4-(4-(6-Chloro-2-((3R,3aR,6R,6aR)-6-hydroxyhexahydrofuro[3,2-b]furan-3-yloxy)-3H-imidazo[4,5-b]pyridin-5-yl)phenyl)cyclohexyl morpholine-4-carboxylate]", "values": [{"measurement": "c (control) (metabolic stability), remaining test compound after NADPH independent incubation", "setting": "[1]", "result": 98, "unit": "%"}, {"measurement": "t1/2 INVITRO", "setting": "[1]", "result": ">2.17", "unit": "h"}, {"measurement": "EC50", "setting": "[2]", "result": 6, "unit": "nM"}]}, {"smiles": "CCNC(=O)O[C@H]1CC[C@@H](c2ccc(-c3nc4[nH]c(O[C@@H]5CO[C@H]6[C@@H]5OC[C@H]6O)nc4cc3Cl)cc2)CC1", "note": "[Example 10, (cis)-4-(4-(6-Chloro-2-((3R,3aR,6R,6aR)-6-hydroxyhexahydrofuro[3,2-b]furan-3-yloxy)-3H-imidazo[4,5-b]pyridin-5-yl)phenyl)cyclohexyl ethylcarbamate]", "values": [{"measurement": "c (control) (metabolic stability), remaining test compound after NADPH independent incubation", "setting": "[1]", "result": 105, "unit": "%"}, {"measurement": "t1/2 INVITRO", "setting": "[1]", "result": ">2.17", "unit": "h"}, {"measurement": "EC50", "setting": "[2]", "result": 26, "unit": "nM"}]}]}
